Experimental findings from patent publication US20240368125A1, “NOVEL PYRAZINYL-TRIAZOLE COMPOUNDS AS PESTICIDES” (Bayer Aktiengesellschaft, priority 2021, published 2024) are described below.

Each structure is given as a SMILES string.

What all share (type): in vivo
In series [1] the test system is Rhipicephalus (Boophilus) microplus larvae (strain Parkhurst, resistant against synthetic pyrethroids). Description: Rhipicephalus (Boophilus) microplus in-vitro contact test, larval cattle tick. The conditions noted are these: Rhipicephalus microplus; 1 μg/cm^2 (=100 g/ha), after 48 hours; read-out: efficacy (larvae dead or moribund). How it is done: Rhipicephalus (Boophilus) Microplus—In-Vitro Contact Tests Larval Cattle Tick (Strain Parkhurst, Resistant Against Synthetic Pyrethroids
(§1) 9 mg compound is solved in 1 mL acetone and diluted with acetone to the desired concentration. 250 μL of the test solution is filled in 25 mL glass test tubes and homogeneously distributed on the inner walls by rotation and tilting on a shaking device (2 h at 30 rpm). With a compound concentration of 900 ppm, an inner surface of 44.7 cm^2 and a homogeneous distribution, a dose of 5 μg/cm^2 is achieved.
After the solvent has evaporated, each test tube is filled with 20-50 cattle tick larvae (Rhipicephalus microplus), closed with a perforated lid and incubated in a horizontal position at 85% relative humidity and 27° C. in an incubator. After 48 hours efficacy is determined. The larvae are patted on the ground of the tubes and negative geotactic behavior is recorded.

In series [2] the test system is adult cat fleas (Ctenocephalides felis). The series can be described thus: Ctenocephalides felis in-vitro contact test, adult cat flea. Particulars: Ctenocephalides felis; 1 μg/cm^2 (=100 g/ha), after 48 hours; read-out: efficacy (fleas dead or moribund). How it is done:
Ctenocephalides Felis—In-Vitro Contact Tests Adult Cat Flea
as §1
After the solvent has evaporated, each test tube is filled with 5-10 adult cat fleas (Ctenocephalides felis), closed with a perforated lid and incubated in a lying position at room temperature and relative humidity. After 48 hours efficacy is determined. The fleas are patted on the ground of the tubes and are incubated on a heating plate at 45-50° C. for at most 5 minutes. Immotile or uncoordinated moving fleas, which are not able to escape the heat by climbing upwards, are marked as dead or moribund.
An efficacy of 100% means all fleas are dead or moribund; 0% means no fleas are dead or moribund.

Series [3] concerns adult brown dog ticks (Rhipicephalus sanguineus). Description: Rhipicephalus sanguineus in-vitro contact test, adult brown dog ticks. Particulars: Rhipicephalus sanguineus; 1 μg/cm^2 (=100 g/ha), after 48 hours; read-out: efficacy (ticks dead or moribund). The protocol: Rhipicephalus sanguineus—In-Vitro Contact Tests with Adult Brown Dog Ticks
as §1
After the solvent has evaporated, each test tube is filled with 5-10 adult brown dog ticks (Rhipicephalus sanguineus), closed with a perforated lid and incubated in a lying position at room temperature and relative humidity. After 48 hours efficacy is determined. The ticks are patted on the ground of the tubes and are incubated on a heating plate at 45-50° C. for at most 5 minutes. Immotile or uncoordinated moving ticks, which are not able to escape the heat by climbing upwards, are marked as dead or moribund.
An efficacy of 100% means all ticks are dead or moribund; 0% means no ticks are dead or moribund.

In series [4] the test system is larvae of the banded cucumber beetle (Diabrotica balteata). Description: Diabrotica balteata spray test. The conditions noted are these: 100 g/ha (=32 μg/well), wheat seeds, after 7 days; for pest or weed control at 32 µg/disc, 100 g/ha: Diabrotica balteata, 168 h, read-out: efficacy (seedlings grown). The protocol: Diabrotica balteata—Spray Test
(§2) Solvent: 78.0 parts by weight of acetone • • 1.5 parts by weight of dimethylformamide
(§3) Emulsifier: alkylarylpolyglycol ether
(§4) To produce a suitable preparation of active compound, 1 part by weight of active compound is mixed with the stated amount of solvent, and the concentrate is diluted with water, containing an emulsifier concentration of 1000 ppm, to the desired concentration. Further test concentrations are prepared by dilution with emulsifier containing water.
Soaked wheat seeds (Triticum aestivum) are placed in a multiple well plate filled with agar and some water and are incubated for 1 day to germinate (5 seeds per well). The germinated wheat seeds are sprayed with a test solution containing the desired concentration of the active ingredient. Afterwards each unit is infected with 10-20 larvae of the banded cucumber beetle (Diabrotica balteata).
After 7 days efficacy in % is determined. 100% means all the seedlings have grown up like in the untreated, uninfected control; 0% means none of the seedlings have grown.

In series [5] the test system is green peach aphid (Myzus persicae). Description: Myzus persicae spray test (MYZUPE). Particulars: 120 h; for mortality at 100 g/ha: in Brassica rapa, foliar. How it is done: Myzus persicae—Spray Test
(§5) Solvent: 78.0 parts by weight acetone • 1.5 parts by weight dimethylformamide
as §3
(§6) To produce a suitable preparation of active compound, 1 part by weight of active compound is mixed with the stated amount of solvents and is diluted with water, containing an emulsifier concentration of 1000 ppm, to the desired concentration. Further test concentrations are prepared by dilution with emulsifier containing water.
Chinese cabbage (Brassica pekinensis) leaf disks infected with all instars of the green peach aphid (Myzus persicae), are sprayed with a preparation of the active ingredient of the desired concentration.
After 5 days mortality in % is determined. 100% means all aphids have been killed and 0% means none of the aphids have been killed.
Myzus persicae—Spray Test (MYZUPE
After the specified period of time, mortality in % is determined. 100% means all aphids have been killed and 0% means none of the aphids have been killed.

For series [6], the system named is larvae of the southern green stink bug (Nezara viridula). Description: Nezara viridula spray test. The conditions noted are these: for mortality at 500 g/ha: Nezara viridula, in Hordeum vulgare, 96 h; for mortality: 500 g/ha, barley plants, after 4 days. How it is done: Nezara viridula—Spray Test
as §2, §3, §4
Barley plants (Hordeum vulgare) are sprayed with a test solution containing the desired concentration of the active ingredient and are infested with larvae of the southern green stink bug (Nezara viridula).
After 4 days mortality in % is determined. 100% means all the stink bugs have been killed; 0% means none of the stink bugs have been killed.

The test system of series [7] is brown planthopper (Nilaparvata lugens). The series can be described thus: Nilaparvata lugens spray test. The conditions noted are these: for mortality at 500 g/ha: Nilaparvata lugens, in Oryza sativa, 96 h; for mortality: 500 g/ha, rice plants, after 4 days. How it is done: Nilaparvata lugens—Spray Test
as §2, §3, §6
Rice plants (Oryza sativa) are sprayed with a preparation of the active ingredient of the desired concentration and the plants are infested with the brown planthopper (Nilaparvata lugens).
After 4 days mortality in % is determined. 100% means all planthoppers have been killed and 0% means none of the planthoppers have been killed.

Series [8] deals with fall armyworm larvae (Spodoptera frugiperda). The series can be described thus: Spodoptera frugiperda spray test (SPODFR). Particulars: in Zea mays, 168 h. How it is done: Spodoptera frugiperda—Spray Test
as §5, §3, §6
Maize (Zea mays) leaf sections are sprayed with a preparation of the active ingredient of the desired concentration. Once dry, the leaf sections are infested with fall armyworm larvae (Spodoptera frugiperda).
After 7 days mortality in % is determined. 100% means all caterpillars have been killed and 0% means none of the caterpillars have been killed.
Spodoptera frugiperda—Spray Test (SPODFR
After the specified period of time, mortality in % is determined. 100% means all caterpillars have been killed and 0% means none of the caterpillars have been killed.

For `Cc1nc([C@H](C)NC(=O)c2cc(OC(F)(F)F)cc(C3CC3)c2)n(-c2cnc(C(=O)N(C)C)cn2)n1` [Example I-047, 5-(5-{(1S)-1-[3-Cyclopropyl-5-(trifluoromethoxy)benzamido]ethyl}-3-methyl-1H-1,2,4-triazol-1-yl)-N,N-dimethylpyrazine-2-carboxamide], the pest or weed control at 1 µg/cm2 in series [1] and in series [2] was 100% throughout. Moreover, the pest or weed control at 1 µg/cm2, 100 g/ha in series [3] came out at 100%. Besides, in series [4], the pest or weed control at 32 µg/disc, 100 g/ha was found to be 80%. Also, the mortality at 100 g/ha came to 90% in series [5] and 100% in series [8]. Moreover, the mortality at 500 g/ha in series [6] and in series [7] was 100% each time.

With `CCN(C)C(=O)c1cnc(-n2nc(C)nc2[C@H](C)NC(=O)c2cc(C(F)(F)F)cc(C(F)(F)F)c2)cn1` [Example I-016], the pest or weed control at 1 µg/cm2 in series [1] and in series [2] was 100% each time. Also, the pest or weed control at 1 µg/cm2, 100 g/ha in series [3] came to 100%. Besides, the mortality at 100 g/ha in series [5] and in series [8] was 100% throughout. In addition, the mortality at 500 g/ha in series [6] and in series [7] was 100% throughout.

For `C[C@H](NC(=O)c1cc(OC(F)(F)F)cc(OC(F)(F)F)c1)c1ncnn1-c1cnc(C(=O)N(C)C2CC2)cn1` [Example I-026], the pest or weed control at 1 µg/cm2 in series [1] and in series [2] was 100% in each case. Also, in series [3], the pest or weed control at 1 µg/cm2, 100 g/ha came to 100%. The pest or weed control at 32 µg/disc, 100 g/ha in series [4] is 100%. Also, the mortality at 500 g/ha in series [6] and in series [7] was 100% in each case. Further, in series [8], the mortality at 100 g/ha was found to be 100%.

Turning to `C[C@H](NC(=O)c1cc(C(F)F)cc(C(F)F)c1)c1nc(C2CC2)nn1-c1cnc(C(N)=O)cn1` [Example I-071], the “efficacy (seedlings grown)” value in series [4] is given as 100%. For the same compound, the mortality in series [6] and in series [7] was 90% each time.

Regarding `Cc1nc([C@H](C)NC(=O)c2cc(C(F)(F)F)cc(C(F)(F)F)c2)n(-c2cnc(C(=O)NC3CC3)cn2)n1` [Example I-014], in series [1], the pest or weed control at 1 µg/cm2 amounted to 100%. In addition, the pest or weed control at 1 µg/cm2, 100 g/ha in series [3] is 100%. Also, the figures for the mortality at 100 g/ha in series [5] and in series [8] were 90% and 100%, respectively. Further, the values for the mortality at 500 g/ha in series [6] and in series [7] were 90% and 100%, respectively.

With `Cc1nc([C@H](C)NC(=O)c2cc(OC(F)(F)F)cc(C3CC3)c2)n(-c2cnc(C(=O)N(C)C3CC3)cn2)n1` [Example I-032, N-Cyclopropyl-5-(5-{(1S)-1-[3-cyclopropyl-5-(trifluoromethoxy)benzamido]ethyl}-3-methyl-1H-1,2,4-triazol-1-yl)-N-methylpyrazine-2-carboxamide], the pest or weed control at 1 µg/cm2 in series [1] and in series [2] was 100% each time. Besides, the pest or weed control at 1 µg/cm2, 100 g/ha in series [3] stood at 80%. The results for the mortality at 100 g/ha in series [5] and in series [8] were 90% and 100%, respectively. The mortality at 500 g/ha in series [7] amounted to 100%.

Turning to `Cc1nc([C@H](C)NC(=O)c2cc(C(F)(F)F)cc(C(F)(F)F)c2)n(-c2cnc(C(N)=O)cn2)n1` [Example I-012], the pest or weed control at 1 µg/cm2 in series [1] was 100%. Moreover, the pest or weed control at 1 µg/cm2, 100 g/ha in series [3] is 100%. In addition, the mortality at 100 g/ha in series [5] and in series [8] was 100% throughout. Moreover, the mortality at 500 g/ha in series [6] and in series [7] was 100% throughout.

Take `C[C@H](NC(=O)c1cc(OC(F)(F)F)cc(C2(C#N)CC2)c1)c1nc(C2CC2)nn1-c1cnc(C(N)=O)cn1` [Example I-072]: in series [4], the “efficacy (seedlings grown)” value amounted to 100%. Further, the mortality in series [6] and in series [7] was 90% each time.

`C[C@H](NC(=O)c1cc(OC(F)(F)F)cc(S(C)(=O)=O)c1)c1ncnn1-c1cnc(C(=O)N(C)C)cn1` [Example I-017]: the pest or weed control at 1 µg/cm2 in series [1] and in series [2] was 100% in each case. Further, the pest or weed control at 1 µg/cm2, 100 g/ha in series [3] worked out at 100%. The pest or weed control at 32 µg/disc, 100 g/ha in series [4] worked out at 100%. Also, the Emax at 4 g/ha in series [5] (MYZUPE, 4 g ai/ha, 5 dat, read-out: % Efficacy) was 70%. Also, the Emax at 20 g/ha in series [5] (MYZUPE, 20 g ai/ha, 5 dat, read-out: % Efficacy) was 90%. In addition, the Emax at 100 g/ha in series [5] (MYZUPE, 100 g ai/ha, 5 dat, read-out: % Efficacy) is 100%. The mortality at 100 g/ha in series [5] is 100%. For the same compound, the mortality at 500 g/ha in series [6] and in series [7] was 100% each time.

Regarding `Cc1nc([C@H](C)NC(=O)c2cc(C(F)(F)F)cc(C(F)(F)F)c2)n(-c2cnc(C(=O)N(C)C)cn2)n1` [Example I-015], the pest or weed control at 1 µg/cm2 in series [1] and in series [2] was 100% in each case. The pest or weed control at 1 µg/cm2, 100 g/ha in series [3] turned out to be 100%. The figures for the mortality at 100 g/ha in series [5] and in series [8] were 90% and 100%, respectively. Also, the mortality at 500 g/ha in series [6] and in series [7] was 100% throughout.

On to `C[C@H](NC(=O)c1cc(OC(F)(F)F)cc(S(C)(=O)=O)c1)c1ncnn1-c1cnc(C(=O)NC2CC2)cn1` [Example I-020], for which the pest or weed control at 1 µg/cm2 in series [1] was found to be 100%. The pest or weed control at 32 µg/disc, 100 g/ha in series [4] was 100%. Moreover, in series [5], the mortality at 100 g/ha was 100%. The mortality at 500 g/ha in series [6] and in series [7] was 100% throughout.

The mortality is the percentage killed. Higher therefore signals fewer survivors.
